From article PMC10374545, “A small molecule inhibitor of PTP1B and PTPN2 enhances T cell anti-tumor immunity” (Nature Communications, 2023)
Where “and” joins values, the source holds several entries; their conditions need not be identical. Identical values can stand only once.

Columns and labels:
OT-I CD8+ T cells = experiment: Intracellular IFNγ, TNF and Granzyme B in activated OT-I T cells; format: cell-based, mouse; parameters: Grzmb, single replicates / IFN TNF, single replicates / IFN TNF, column mean / Grzmb, difference between medians: Actual / Grzmb, difference between medians: Hodges-Lehmann / IFN TNF, group mean (Mean 2): unit not given here; details: for IFN TNF, group mean (Mean 2): N 6
Procedure: Single-cell suspensions from spleens and lymph nodes were obtained as described previously. For the detection of intracellular cytokines and granzyme B, T cells were fixed and permeabilized with the BD Cytofix/Cytoperm kit according to the manufacturer’s instructions. Briefly, T cells were first surface stained with fluorophore-conjugated antibodies and then fixed followed by permeabilization on ice for 20 min. Fixed and permeabilized cells were stained for IFN-γ, TNF, and granzyme B for 45 min at room temperature. For the detection of intracellular FoxP3 the Foxp3/Transcription Factor Staining Buffer Set (eBioscience) was used according to the manufacturer’s instructions. Briefly, cells were fixed and permeabilized for 1 h on ice followed by intracellular staining at room temperature for 45 min. For the detection of serum cytokines, the BD CBA Mouse Inflammation Kit™ was used according to the manufacturers’ instructions.
For the detection of intracellular IFNγ, TNF and Granzyme B, single-cell suspensions were obtained from lymph nodes of wild type (OT-I;Ptpn2^fl/fl) or PTPN2-deficient (OT-I;Lck-Cre;Ptpn2^fl/fl) mice and stimulated with 1 nM N4 peptide for 16 h and rested in complete T cell media supplemented with IL-2 (5 ng/ml) and IL-7 (0.2 ng/ml) for 2 days. […] Cells were then stained with fluorophore-conjugated antibodies to cell surface CD8 and intracellular IFNγ, TNF, and Granzyme B and analyzed by flow cytometry.

[1] = Serum liver enzymes AST and ALT; format: in vivo, mouse; parameters: Serum ALT: unit not given here
From the text: CD3ε (BD Biosciences Cat# 553058) and CD28 (BD Biosciences Cat# 557393) antibodies for T cell stimulation and NK1.1 (BD Biosciences Cat# 564143) antibody for NK cell stimulation were purchased from BD Biosciences. Ly49H (clone 3D10, BioLegend Cat# 144702) antibody for NK stimulation was from BioLegend. For analyzing T cell signaling, p-(Y418) SFK (Thermo Fisher Scientific Cat# 14-9034-82) was from Invitrogen and p-(Y694) STAT-5 (D47E7) XP® (Cell Signaling Technology Cat# 4322) was from Cell Signaling. Recombinant human IL-2, recombinant murine IL-7 and recombinant human IL-15 were purchased from the PeproTech, recombinant mouse IL-12 and recombinant human IL-18 were from Australia Biosearch and […] (N4) from Mimotopes. InVivoMAb anti-mouse PD-1 (Bio X Cell Cat# BE0146) and InVivoMAb rat IgG2a isotype control (Bio X Cell Cat# BE0251) were purchased from Bio X Cell. DNase I was from Sigma-Aldrich. Rabbit monoclonal PTP1B (Abcam Cat# ab244207) antibody for flow cytometry was from Abcam and mouse monoclonal PTPN2 6F3 antibody for immunoblotting and flow cytometry was from MédiMabs (Cat# MM-019-P). Mouse anti-actin (Thermo Fisher Scientific Cat# MA5-11866) from Invitrogen and mouse α-tubulin (Sigma-Aldrich Cat# T5168) was from Merck. The mouse anti-nuclear antibodies Ig’s (total IgA+G + M) ELISA Kit was from Alpha Diagnostic Int. and the Transaminase II Kit from Wako Pure Chemicals. FBS was purchased from Thermo Scientific, RPMI 1640, DMEM, MEM, HEPES, non-essential amino acids, penicillin/streptomycin, and sodium-pyruvate were from Invitrogen, collagenase type IV was purchased from Worthington Biochemical and ABBV-CLS-484 was from MedChemExpress (Cat# HY-145923).

AT3 mammary tumors = experiment: AT3 mammary tumor growth in C57BL/6 mice; format: in vivo, mouse
Procedure: Male or female mice were injected subcutaneously with 5 × 10^5 MC38 tumor cells resuspended in 100 μl D-PBS into the flank. Alternatively, female mice were injected orthotopically with 5 × 10^5 AT3 or AT3-OVA or PTPN2-deleted AT3 or AT3-OVA tumor cells resuspended in 20 μl D-PBS into the fourth mammary fat pad. Tumor sizes were measured in two dimensions (mm^2) using electronic callipers two to three times per week as soon as tumors were palpable (20–25 mm^2).

[2] = N4 1nM, 1 μM, Fig. 2B raw data, listed as CMP-182

## CC(C)(O)CCOc1ccc2cc(O)c(N3CC(=O)NS3(=O)=O)c(F)c2c1 [Compound 182, 5-(1-Fluoro-3-hydroxy-7-(3-hydroxy-3-methylbutoxy)naphthalen-2-yl)−1,2,5-thiadiazolidin-3-one 1,1-dioxide]
OT-I CD8+ T cells; CMP-182 vs. DMSO, N4, Fig. 2B
  Grzmb, difference between medians: Actual: 672.5
  Grzmb, difference between medians: Hodges-Lehmann: 741.5
OT-I CD8+ T cells; [2]
  Grzmb, single replicates: 3755 and 3056 and 3282 and 3899 and 3113 and 2884
  IFN TNF, single replicates: 32.6 and 31.1 and 31 and 36.2 and 30.7 and 32.8
OT-I CD8+ T cells; N4 1nM, Fig. 2B
  IFN TNF, group mean (Mean 2): 32.4
OT-I CD8+ T cells; N4, n=6, Fig. 2B
  Grzmb, median of column B: 3198, n=6
OT-I CD8+ T cells; OT-I CD8+ T cells
  expression of Granzyme B, IFNγ and TNF: increased expression
OT-I CD8+ T cells; Vehicle (no N4), 1 μM, Fig. 2B raw data, listed as CMP-182
  IFN TNF, single replicates: 0.038 and 0.03 and 0.037 and 0.066 and 0.023 (2×)
OT-I CD8+ T cells; Vehicle (no N4), Fig. 2B
  IFN TNF, group mean (Mean 2): 0.03617
OT-I CD8+ T cells; mean over Vehicle and N4 1nM rows, two-way ANOVA, Fig. 2B
  IFN TNF, column mean: 16.22
[1]; 10 mg/kg i.v.
  circulating aspartate aminotransferase (AST): moderately increased
  serum alanine aminotransferase (ALT): unaffected
[1]; Figure 10C, individual mice, listed as CMP-182
  Serum ALT: 680.498 and 1112.03 and 497.925 and 464.73 and 414.938 and 597.51 and 697.095 and 730.29
[1]; Figure 10C, individual mice, listed as CMP-182, in U/L (unit assumed)
  Serum AST: 1826.92 and 3480.77 and 2019.23 and 1211.54 and 1250 and 1519.23 and 2346.15 and 4019.23
[1]; Figure 10C, serum ALT, median, n=8
  GPT, median: 639.0, n=8
[1]; Figure 10C, serum AST, median, n=8
  GOT, median: 1923, n=8
AT3 mammary tumors; 10 mg, Figure 4D, listed as CMP-182, in mg (unit assumed)
  Tumour weights AT-3, individual mice: 433 and 615 and 255 and 610 and 642 and 344
AT3 mammary tumors; 10 mg, day 10 post injection, listed as CMP-182, in mm2
  Tumour growth AT-3, individual mice: 18.92 and 38.28 and 21.93 and 30.78 and 35.75 and 25.97
AT3 mammary tumors; 10 mg, day 13 post injection, listed as CMP-182, in mm2
  Tumour growth AT-3, individual mice: 24.01 and 35.1 and 25.44 and 30.24 and 37.12 and 27.5
AT3 mammary tumors; 10 mg, day 16 post injection, listed as CMP-182, in mm2
  Tumour growth AT-3, individual mice: 28.5 and 42.21 and 23.76 and 29.58 and 41.04 and 36.4
AT3 mammary tumors; 10 mg, day 19 post injection, listed as CMP-182, in mm2
  Tumour growth AT-3, individual mice: 40.71 and 52.8 and 61.32 and 46.5 and 44.4 and 42.9
AT3 mammary tumors; 10 mg, day 22 post injection, listed as CMP-182, in mm2
  Tumour growth AT-3, individual mice: 40.95 and 59.13 and 71.25 and 50.16 and 54.4 and 49.4
AT3 mammary tumors; 10 mg, day 25 post injection, listed as CMP-182, in mm2
  Tumour growth AT-3, individual mice: 70.31 and 63.7 and 89.04 and 67.08 and 73.15 and 57.67
AT3 mammary tumors; 10 mg, day 27 post injection, listed as CMP-182, in mm2
  Tumour growth AT-3, individual mice: 77.08 and 74.4 and 63 and 65.86 and 98.28 and 55.44
AT3 mammary tumors; 10 mg/kg i.v. every 2 days
  growth of orthotopic AT3 mammary tumors: repressed the growth
AT3 mammary tumors; AT-3 tumours, CMP-182 10 mg, n=6, Figure 4D
  Tumour weights, median: 521.5, n=6
AT3 mammary tumors; AT-3 tumours, CMP-182 10 mg, n=6, Figure 4D, in mm2
  Tumour size, predicted column mean over all time points: 48.13
AT3 mammary tumors; AT-3 tumours, CMP-182 10 mg, n=6, time point 10, Figure 4D, in mm2
  Tumour size, Mean 2: 28.61
AT3 mammary tumors; AT-3 tumours, CMP-182 10 mg, n=6, time point 13, Figure 4D, in mm2
  Tumour size, Mean 2: 29.9
AT3 mammary tumors; AT-3 tumours, CMP-182 10 mg, n=6, time point 16, Figure 4D, in mm2
  Tumour size, Mean 2: 33.58
AT3 mammary tumors; AT-3 tumours, CMP-182 10 mg, n=6, time point 19, Figure 4D, in mm2
  Tumour size, Mean 2: 48.11
AT3 mammary tumors; AT-3 tumours, CMP-182 10 mg, n=6, time point 22, Figure 4D, in mm2
  Tumour size, Mean 2: 54.22
AT3 mammary tumors; AT-3 tumours, CMP-182 10 mg, n=6, time point 25, Figure 4D, in mm2
  Tumour size, Mean 2: 70.16
AT3 mammary tumors; AT-3 tumours, CMP-182 10 mg, n=6, time point 27, Figure 4D, in mm2
  Tumour size, Mean 2: 72.34
